Source: patent US10214561B2, “Peptide having activity of inhibiting production of toxin by bacterium belonging to genus clostridium” (MIYARISAN PHARMACEUTICAL CO., LTD., priority 2014, dated 2019)
“Also recorded” adds a separate entry of the source. Read-outs that look alike come from different tables or passages of the source. No end group written: not given here.

Legend:
theta-toxin (pfoA) gene = assay type: cell-based, Clostridium welchii strain 13
[1] = test system: Clostridium welchii theta-toxin (pfoA); assay type: cell-based, Clostridium welchii strain 13
[2] = read-out: IC50 of the inhibitory activity on the toxin production (pfoA expression amount as indicator)

Substance | agonist activity or antagonist activity (pfoA expression) [1] | IC50 (μM) [1] | other results
ACFWAH [peptide 6n] |  |  | activity of inhibiting toxin expression (theta-toxin pfoA, Northern blot, FIG. 5) (theta-toxin (pfoA) gene): activity of inhibiting toxin expression was shown; also recorded: inhibitory activity
AgrDcb-lactam: Peptide of Formula (2), CFWAH lactam obtained by ammonia conversion of AgrDcb-thiolactone (lactam (positions not given here); also: lactam from ammonia conversion of thiolactone, places not given here) |  |  | expression of the gene encoding theta-toxin (pfoA) (FIG. 9) [1]: inhibited; IC50 [1, 2]: 10000 nM
CAWAA [SEQ ID NO. 33 (Benzyloxycarbonyl group)] | antagonist activity |  | 
CAWFA [SEQ ID NO. 20 (Hydrogen atom)] |  |  | IC50 ([1]; read-out: IC50): 300 nM
CAWFT [SEQ ID NO. 37 (Benzyloxycarbonyl group), reference compound] |  | (No activity) | 
CLAFT [SEQ ID NO. 39 (Benzyloxycarbonyl group), reference compound] | neither the agonist activity nor antagonist activity | (No activity) | 
CLFWS [SEQ ID NO. 42 (Benzyloxycarbonyl group), reference compound] |  | (No activity) | 
CLFWT [SEQ ID NO. 22 (Benzyloxycarbonyl group)] | antagonist activity |  | 
CLFWT [SEQ ID NO. 22 (Hydrogen atom)] |  |  | IC50 ([1]; read-out: IC50): 500 nM
CLWAS [SEQ ID NO. 35 (Benzyloxycarbonyl group)] |  |  | IC50 ([1]; read-out: IC50): 1000 nM
CLWAT [SEQ ID NO. 31 (Benzyloxycarbonyl group)] | antagonist activity |  | 
CLWFA [SEQ ID NO. 38 (Benzyloxycarbonyl group), reference compound] | agonist activity | (Agonist) | 
CLWFS [SEQ ID NO. 21 (Benzyloxycarbonyl group)] | antagonist |  | 
CLWFT [SEQ ID NO. 40 (Benzyloxycarbonyl group), reference compound] | agonist activity | (Agonist) | 
CLWYT [SEQ ID NO. 41 (Benzyloxycarbonyl group), reference compound] |  | (Agonist) | 
Cys-Phe-Trp-Ala-His [cyclic CFWAH] |  |  | activity of inhibiting toxin expression (theta-toxin pfoA, Northern blot, FIG. 5) (theta-toxin (pfoA) gene): particularly high activity; also recorded: inhibitory activity; expression of the gene encoding theta-toxin (pfoA) (FIG. 9) [1]: inhibited; IC50 [1, 2]: 10000 nM
